Measurements: patent US10426753B2, “Supramolecular combinatorial therapeutics” (INVICTUS ONCOLOGY PVT. LTD., priority 2014, dated 2019)

Tests used:
Type in all cases: cell-based
Details in all cases: 48, 72 and 96 hrs, supramolecular taxane conjugate
MDA-MB-231 = assay: Cell viability assay (MTT), breast cancer cell line
Method: (§1) Mammalian cells were grown in specific culture media, supplemented with 10% fetal bovine serum (FBS) and antibiotics in a humidified environment containing 5% CO2 at 37° C.
(§2) The effects of supramolecular taxane conjugates on the viability of cancer cells were measured using MTT assay (^6,7,8). Cells in 100 μl culture-media were plated in 96-well plates (3000-5000 cells/well) and allowed to adhere overnight in a humidified environment containing 5% CO2 at 37° C. Fresh media (100 μL) containing different concentrations of compounds were added to cells and incubated for 48, 72 and 96 hrs. Following incubation, cell viability was determined using the MTT assay. Similar assay was performed on normal human epithelial cells seeded in 100 μl media in 96-well plate (5000-10,000 cells per well), under identical incubation time and dosage of compounds, used for cancer cells to determine the effect of this targeted therapy on normal cells. The cell viability was plotted as dose-response curves using curve fitting.
(§3) The effects of compounds (New taxane 2 and 16) were evaluated in vitro in comparison with standard taxanes in breast cancer (MDA-MB-231), ovarian cancer (SKOV-3), lung cancer (A549), prostate cancer (DU-145), and colorectal cancer (HCT-116) cell lines.

SKOV-3 = assay: Cell viability assay (MTT), ovarian cancer cell line
Method: as §1, §2, §3

A549 = assay: Cell viability assay (MTT), lung cancer cell line
Method: as §1, §2, §3

DU-145 = assay: Cell viability assay (MTT), prostate cancer cell line
Method: as §1, §2, §3

HCT-116 = assay: Cell viability assay (MTT), colorectal cancer cell line
Method: as §1, §2, §3

Measured: efficacy on cell viability versus standard taxanes

CO[C@H]1C(=O)[C@]2(C)[C@@H](OC)C[C@H]3OC[C@@]3(OC(C)=O)[C@H]2[C@H](OC(=O)c2ccccc2)[C@]2(O)C[C@H](OC(=O)[C@H](OC(=O)CCC(=O)NCC(=O)O[C@H]3CC[C@@]4(C)C(=CCC5C4CC[C@@]4(C)C5CC[C@@H]4[C@H](C)CCCC(C)C)C3)[C@@H](NC(=O)OC(C)(C)C)c3ccccc3)C(C)=C1C2(C)C (stereo partly shown) [compound 2]
comparable efficacy to standard taxanes: MDA-MB-231 | SKOV-3 | A549 | DU-145 | HCT-116

CC(=O)O[C@H]1C(=O)[C@@]2(C)[C@H]([C@H](OC(=O)c3ccccc3)[C@]3(O)C[C@H](OC(=O)[C@H](OC(=O)CCC(=O)NCC(=O)O[C@H]4CC[C@@]5(C)C(=CCC6C5CC[C@@]5(C)C6CC[C@@H]5[C@H](C)CCCC(C)C)C4)[C@@H](NC(=O)c4ccccc4)c4ccccc4)C(C)=C1C3(C)C)[C@]1(OC(C)=O)CO[C@@H]1C[C@@H]2O (stereo partly shown) [compound 16]
comparable efficacy to standard taxanes: MDA-MB-231 | SKOV-3 | A549 | DU-145 | HCT-116
